According to patent publication US20230181512A1, “METHODS FOR THE TREATMENT OF INFANTILE SPASMS USING MEDIUM CHAIN TRIGLYCERIDES” (Cerecin Inc., priority 2020, published 2023):
Entries after “also recorded” stand apart in the source; their conditions may differ. Where two headings read alike, the source gives them in different places.

Tests used:
[1] = tested on: Infantile spasms (IS) patients; settings: cited from earlier work
[2] = cited from earlier work; for adverse events (AEs) associated with treatment: IS treatment, refs [32], [1]
[3] = tested on: rat triple hit model of IS; experiment: Rat triple hit model of IS (DOX, LPS, PCPA): spasm frequency; type: in vivo, Sprague Dawley rats; settings: for spasms/hr / spasms/hour: P5-P7, scored on P7; for spasms/hour: vehicle/milk only mean 4.5 (SD 2.3)
Text: Various animal models of IS have been created as tools to test efficacy of various interventions. One such example is a rat triple hit model developed by Scantlebury and co-authors. This model was developed “based on evidence that structural or functional abnormalities in cortical or subcortical structures may be necessary to produce IS.” [11]. The model uses three lesions to induce infantile spasms. The lesions include doxorubicin (DOX), lipopolysaccharide (LPS) and p-chlorophenylalanine (PCPA). DOX is an inhibitor of topo isomerase 2 that results in diffuse brain damage involving the forebrain and brainstem when injected intraventricularly. LPS can stimulate the release of inflammatory cytokines in various cell types, leading to an acute inflammatory response. Intracerebral injection of LPS in rat pups activates inflammatory cascades resulting in hypomyelination, white matter rarefaction and necrosis. PCPA depletes serotonin by inhibiting the enzyme tryptophan hydroxylase.
In accordance with embodiments of the disclosure, tricaprilin was tested for its ability to reduce spasm frequency in this triple hit model. These studies were done using timed pregnant Sprague Dawley rats. Animals were maintained in a 12 hr light/dark cycle and had free access to food and water. The day of birth was considered as P0. Animal care and use conformed to institutional policy and guidelines of the American Association for the Accreditation of Laboratory Animal Care. All procedures and experiments were performed in accordance with the National Institute of Health Guide for the Care and Use of Laboratory Animals.
At postnatal day (P) 3 DOX (5 μg/2.5 μl) and LPS (3 μg/1.5 μl) were given intracerebrally and at P5 PCPA is given intraperitoneally (i.p.) (200 mg/kg). Intracerebral infusions of DOX and LPS were done stereotaxically under isoflurane anesthesia. Pups were positioned in a stereotaxic frame for neonatal rat surgery (Benchmark Angle One, MyNeurolab.com, St Louis Mo.). DOX was injected into the right lateral ventricle followed by LPS into the right parietal cortex. Pups were individually placed in beakers warmed in a water bath and filled with bedding (31-33° C.) and fed via a cheek cannula. Spasms begin at day P4 and continue to P13.
Tricaprilin was administered either by oral gavage (administered twice a day), or steadily in milk via the cheek cannula, from P5-P7. […] For gavage, tricaprilin was administered at 5 ml/kg/day and 10 ml/kg/day. When mixed with milk, tricaprilin was administered at 5, 10 and 30 ml/kg/day. Each group comprised 5 animals. Spasms were recorded and scored on P7, urine ketones collected on P7 at 6 and 12 hours after gavage and same timepoints for milk fed pups. The behaviors of the pups were monitored using a video camera for 2 hours twice daily from P4 (first post-operative day) until P20.
The frequency of spasms varied by concentration of tricaprilin used. […] With reference to FIG. 2B, when tricaprilin was mixed with milk at 5 ml/kg/day spasms/hr were 3.1 (SD 1.7, pvalue=0.300), at 10 ml/kg/day 3.0 (SD 0.8, pvalue=0.139), and at 30 ml/kg/day 1.75 (SD 1.7, pvalue 0.079).

C[C@]12C=CC(=O)C=C1CC[C@@H]1[C@@H]2[C@@H](O)C[C@@]2(C)[C@H]1CC[C@]2(O)C(=O)CO [Prednisolone]
% of patient spasms stopped ([1]; 40-60 mg/day, N 30, ref [17]): 70%

C[C@]12C=CC(=O)C=C1CC[C@@H]1[C@@H]2C(=O)C[C@@]2(C)[C@H]1CC[C@]2(O)C(=O)CO [Prednisone]
% of patient spasms stopped ([1]; 2 mg/kg/day, N 12, ref [19]): 33%

C=CC(N)CCC(=O)O (stereo not drawn) [VGB, Vigabatrin]
adverse events (AEs) associated with treatment [2]: sedation, irritability, insomnia and hypotonia | visual field defects ([2]; persist even with discontinuation of the drug, ref [1]): serious visual field defects that are permanent | % of patient spasms stopped ([1]; 18-36 mg/kg/day, N 75, ref [18]): 11% | % of patient spasms stopped ([1]; 100-148 mg/kg/day, N 67, ref [18]): 36% | % of patient spasms stopped ([1]; 100-150 mg/kg/day, N 52, ref [17]): 54%

CCCCCCCC(=O)OCC(COC(=O)CCCCCCC)OC(=O)CCCCCCC [tricaprilin]
spasms/hr ([3]; mixed with milk 5 ml/kg/day, SD 1.7, pvalue=0.300): 3.1 spasms/hr | spasms/hr ([3]; mixed with milk 10 ml/kg/day, SD 0.8, pvalue=0.139): 3.0 spasms/hr | spasms/hr ([3]; mixed with milk 30 ml/kg/day, SD 1.7, pvalue 0.079): 1.75 spasms/hr | spasms/hour ([3]; oral gavage 5 ml/kg/day, SD 1.6, pvalue 0.155): 2.3 spasms/hour | spasms/hour ([3]; oral gavage 10 ml/kg, SD 0.9, pvalue=0.036): 1.4 spasms/hour | effect on spasms compared to vehicle (in words) ([3]; oral gavage and feeding in milk): reduction in spasms/hr; also recorded: reduces spasms

Adrenocorticotropic hormone (SYSMEHFRWGKPVGKKRRPVKVYPNGAEDESAEAFPLEF; Corticotropin; UniProt P01189 138-176, looked up) [ACTH, first line hormonal therapy for IS]
adverse events (AEs) associated with treatment [2]: hypertension, immune suppression, infection, electrolyte imbalances, GI disturbances, ocular opacities, hypertrophic cardiomyopathy, cerebral atrophy and growth impairment | % of patient spasms stopped ([1]; 20-20 IU/day, N 24, ref [16]): 58% | % of patient spasms stopped ([1]; 150 IU/m2/day divided B.I.D., N 15, ref [13]): 93% | % of patient spasms stopped ([1]; 150 IU/m2/day, N 26, ref Hrachovy, 1994 #681}): 50% | subjects responded with both clinical cessation of spasms and abolition of hypsarrhythmia on EEG ([1]; high-dose natural ACTH 150 IU/m2/day given twice daily, 2 weeks then taper, Baram et al. [13]): 87%
